Results reported in ChEMBL document CHEMBL1201862, “PubChem BioAssay data set” (2004).
Active and inactive are the calls of the source.

How the values were obtained:
[1] = molecular target: Peroxisome proliferator-activated receptor gamma/Nuclear receptor coactivator 2 (Homo sapiens, UniProt P37231); type: functional;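 note: agonist potency for raising coactivator recruitment to the receptor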
[2] = molecular target: Peroxisome proliferator-activated receptor gamma/Nuclear receptor coactivator 1 (Homo sapiens, UniProt P37231); type: functional;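 note: agonist potency as compounds enhance coactivator SRC-1 recruitment to PPARgamma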
[3] = molecular target: Peroxisome proliferator-activated receptor gamma/Nuclear receptor coactivator 3 (Homo sapiens, UniProt P37231); type: functional;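 note: agonist potency for raising coactivator recruitment to the receptor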
[4] = molecular target: T1, Sentrin-specific protease 7 (Homo sapiens, UniProt Q9BQF6); assay: SENP7 protease inhibitors, SAR follow-up, biochemical, luminescence (AID 504497); type: functional
T1 sequence (Q9BQF6 whole entry): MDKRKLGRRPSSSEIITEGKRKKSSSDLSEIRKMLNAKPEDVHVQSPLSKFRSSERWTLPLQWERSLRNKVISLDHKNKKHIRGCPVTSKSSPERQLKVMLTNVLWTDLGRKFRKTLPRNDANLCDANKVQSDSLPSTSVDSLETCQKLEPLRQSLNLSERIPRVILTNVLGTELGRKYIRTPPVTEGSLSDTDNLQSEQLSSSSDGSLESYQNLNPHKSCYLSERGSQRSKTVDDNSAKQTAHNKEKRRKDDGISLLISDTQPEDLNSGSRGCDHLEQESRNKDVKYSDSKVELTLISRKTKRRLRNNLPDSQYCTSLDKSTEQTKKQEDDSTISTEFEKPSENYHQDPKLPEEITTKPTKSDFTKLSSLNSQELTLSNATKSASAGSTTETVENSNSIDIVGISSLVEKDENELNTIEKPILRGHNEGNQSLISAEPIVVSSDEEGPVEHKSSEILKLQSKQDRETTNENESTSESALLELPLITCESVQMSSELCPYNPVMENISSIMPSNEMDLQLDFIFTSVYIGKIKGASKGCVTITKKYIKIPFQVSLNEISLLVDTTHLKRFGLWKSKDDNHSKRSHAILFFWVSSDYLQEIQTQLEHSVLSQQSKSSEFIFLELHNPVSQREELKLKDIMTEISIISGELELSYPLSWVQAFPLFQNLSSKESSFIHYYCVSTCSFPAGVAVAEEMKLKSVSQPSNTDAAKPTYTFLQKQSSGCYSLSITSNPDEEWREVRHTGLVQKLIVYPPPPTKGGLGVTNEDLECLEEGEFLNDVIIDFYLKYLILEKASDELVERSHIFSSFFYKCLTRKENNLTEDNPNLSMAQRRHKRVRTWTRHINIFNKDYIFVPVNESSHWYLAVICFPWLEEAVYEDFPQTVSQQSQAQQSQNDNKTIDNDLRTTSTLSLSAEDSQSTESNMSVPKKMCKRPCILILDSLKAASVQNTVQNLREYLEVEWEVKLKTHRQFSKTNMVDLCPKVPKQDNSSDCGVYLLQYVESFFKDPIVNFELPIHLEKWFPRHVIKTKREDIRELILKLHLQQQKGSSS

Caspase-3 = molecular target: T2, Caspase-3 (Homo sapiens, UniProt P42574); assay: SAR Analysis of small molecule inhibitors of Sentrin-specific proteases (SENPs) using a Caspase-3 Selectivity assay. [Related pubchem assays (depositor defined):AID2540, AID2599, AID434973, AID489001]; type: functional
T2 sequence (P42574 whole entry): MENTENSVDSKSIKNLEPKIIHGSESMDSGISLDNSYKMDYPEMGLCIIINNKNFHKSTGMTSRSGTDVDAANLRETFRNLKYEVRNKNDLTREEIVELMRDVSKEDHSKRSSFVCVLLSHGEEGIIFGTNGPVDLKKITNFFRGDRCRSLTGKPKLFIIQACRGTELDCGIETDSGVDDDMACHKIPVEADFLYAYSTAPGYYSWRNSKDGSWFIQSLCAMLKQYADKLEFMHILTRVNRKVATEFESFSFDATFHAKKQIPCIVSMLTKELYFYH

[5] = molecular target: T3, Sentrin-specific protease 8 (Homo sapiens, UniProt Q96LD8); assay: SENP8 protease inhibitors, SAR follow-up, biochemical, luminescence (AID 504501); type: functional
T3 sequence (Q96LD8 whole entry): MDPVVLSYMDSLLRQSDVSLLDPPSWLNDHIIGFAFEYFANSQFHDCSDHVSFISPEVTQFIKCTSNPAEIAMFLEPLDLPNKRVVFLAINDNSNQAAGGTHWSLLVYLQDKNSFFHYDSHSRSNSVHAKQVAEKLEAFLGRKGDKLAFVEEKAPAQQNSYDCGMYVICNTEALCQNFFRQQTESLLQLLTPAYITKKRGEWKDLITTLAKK

Estrogen receptor beta [6] = molecular target: T4, Estrogen receptor beta (Homo sapiens, UniProt Q92731); assay: ERβ–SRC-3 coactivator interaction inhibitors, confirmation, orthogonal assay, biochemical, ELISA, streptavidin-HRP readout (AID 1060)
Estrogen receptor beta [7] = molecular target: T4, Estrogen receptor beta
[8] = molecular target: T5, Sentrin-specific protease 6 (Homo sapiens, UniProt Q9GZR1); assay: SAR Analysis of small molecule inhibitors of Sentrin-specific protease 6 (SENP6) using a Luminescent assay. [Related pubchem assays (depositor defined):AID2582, AID2599]; type: functional
T5 sequence (Q9GZR1 whole entry): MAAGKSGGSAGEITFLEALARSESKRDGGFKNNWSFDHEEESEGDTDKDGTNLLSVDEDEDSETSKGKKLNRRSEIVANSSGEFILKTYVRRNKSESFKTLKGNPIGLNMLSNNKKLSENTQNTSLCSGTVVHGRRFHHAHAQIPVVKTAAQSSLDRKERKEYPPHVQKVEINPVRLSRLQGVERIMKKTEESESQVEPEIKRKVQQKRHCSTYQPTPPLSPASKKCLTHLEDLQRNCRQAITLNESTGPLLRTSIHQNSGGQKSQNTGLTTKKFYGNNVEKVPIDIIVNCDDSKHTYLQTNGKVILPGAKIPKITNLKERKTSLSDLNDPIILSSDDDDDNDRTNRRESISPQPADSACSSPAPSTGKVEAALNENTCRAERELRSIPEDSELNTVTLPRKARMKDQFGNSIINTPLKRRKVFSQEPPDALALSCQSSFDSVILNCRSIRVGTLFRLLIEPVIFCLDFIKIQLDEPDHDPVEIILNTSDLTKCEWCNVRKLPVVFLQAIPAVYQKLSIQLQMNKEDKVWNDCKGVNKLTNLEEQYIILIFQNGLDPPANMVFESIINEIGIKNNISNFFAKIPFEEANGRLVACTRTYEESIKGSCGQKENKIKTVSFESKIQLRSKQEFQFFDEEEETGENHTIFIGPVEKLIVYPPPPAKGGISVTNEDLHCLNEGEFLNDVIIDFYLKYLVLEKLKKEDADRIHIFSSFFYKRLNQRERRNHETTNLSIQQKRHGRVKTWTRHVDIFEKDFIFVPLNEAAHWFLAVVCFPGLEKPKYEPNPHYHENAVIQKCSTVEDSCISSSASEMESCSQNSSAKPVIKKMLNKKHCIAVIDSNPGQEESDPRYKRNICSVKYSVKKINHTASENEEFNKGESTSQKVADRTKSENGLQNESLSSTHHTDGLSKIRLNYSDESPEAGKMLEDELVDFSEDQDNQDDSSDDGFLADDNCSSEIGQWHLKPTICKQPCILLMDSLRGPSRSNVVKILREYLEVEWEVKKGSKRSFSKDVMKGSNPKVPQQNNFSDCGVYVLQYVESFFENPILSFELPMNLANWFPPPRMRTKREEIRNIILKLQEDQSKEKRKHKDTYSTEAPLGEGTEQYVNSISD

[9] = molecular target: T6, Polyadenylate-binding protein 1 (Homo sapiens, UniProt P11940); assay: PABP1 MLLE–PAM2 binding inhibitor potency, dose response, biochemical, fluorescence polarization, FITC-PAM2 peptide (AID 602259); type: functional; settings: read-out: IC50_Mean
[10] = molecular target: T6, Polyadenylate-binding protein 1; assay: PABP1 MLLE–PAM2 interaction inhibitors, dose response, miRNA deadenylation inhibitor project, biochemical, fluorescence polarization, Cy5-PAM2 peptide, secondary (AID 602260); type: functional; settings: read-out: IC50_Mean
[11] = A Cell Based Secondary Assay To Explore Cytotoxicity of Compounds that Sensitize Mycobacterium Tuberculosis to Beta-Lactam Antibiotics.; type: functional
Protein RecA = molecular target: T7, Protein RecA (Mycobacterium tuberculosis, UniProt P9WHJ3); assay: Fluorescence Cell-Free Homogeneous Dose Retest to Identify Inhibitors of RecA-Intein Splicing Activity. [Related pubchem assays (depositor defined):AID2097, AID2223, AID489010, AID492950]; type: functional
T7 sequence (P9WHJ3 whole entry): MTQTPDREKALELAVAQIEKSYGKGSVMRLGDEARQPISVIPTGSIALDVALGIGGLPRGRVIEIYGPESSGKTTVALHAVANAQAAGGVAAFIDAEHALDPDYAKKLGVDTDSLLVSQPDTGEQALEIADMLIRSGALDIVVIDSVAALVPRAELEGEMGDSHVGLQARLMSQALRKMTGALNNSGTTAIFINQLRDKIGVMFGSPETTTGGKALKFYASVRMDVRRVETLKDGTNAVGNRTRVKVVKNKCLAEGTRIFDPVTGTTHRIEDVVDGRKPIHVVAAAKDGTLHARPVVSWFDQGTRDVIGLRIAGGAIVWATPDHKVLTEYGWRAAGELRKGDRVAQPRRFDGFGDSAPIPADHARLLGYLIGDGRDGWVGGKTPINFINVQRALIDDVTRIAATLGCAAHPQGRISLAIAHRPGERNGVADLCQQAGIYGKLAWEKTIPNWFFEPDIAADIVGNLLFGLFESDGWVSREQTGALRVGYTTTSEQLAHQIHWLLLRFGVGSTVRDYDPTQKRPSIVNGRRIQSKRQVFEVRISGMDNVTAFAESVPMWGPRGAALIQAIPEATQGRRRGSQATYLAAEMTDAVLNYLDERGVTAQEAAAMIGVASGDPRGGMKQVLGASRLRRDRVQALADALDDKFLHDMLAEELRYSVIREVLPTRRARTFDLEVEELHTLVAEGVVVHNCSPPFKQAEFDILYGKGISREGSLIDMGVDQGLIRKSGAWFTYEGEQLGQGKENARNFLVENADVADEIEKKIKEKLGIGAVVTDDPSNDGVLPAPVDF

[12] = molecular target: T8, Mannose-6-phosphate isomerase (Homo sapiens, UniProt P34949); assay: inhibitors of human PMI, primary screen, biochemical, fluorescence intensity, coupled assay (AID 1209)
T8 sequence (P34949 whole entry): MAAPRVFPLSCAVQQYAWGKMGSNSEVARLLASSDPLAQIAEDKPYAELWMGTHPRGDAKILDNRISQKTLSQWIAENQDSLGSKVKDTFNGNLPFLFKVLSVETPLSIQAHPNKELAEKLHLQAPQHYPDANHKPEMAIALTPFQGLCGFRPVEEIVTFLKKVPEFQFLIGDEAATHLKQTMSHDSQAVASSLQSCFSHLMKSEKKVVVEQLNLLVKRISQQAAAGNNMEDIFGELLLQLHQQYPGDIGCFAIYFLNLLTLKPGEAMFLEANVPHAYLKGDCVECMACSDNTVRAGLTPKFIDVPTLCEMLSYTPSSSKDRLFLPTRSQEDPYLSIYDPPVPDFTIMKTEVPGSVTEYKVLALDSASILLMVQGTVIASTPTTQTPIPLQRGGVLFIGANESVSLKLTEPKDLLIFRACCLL

[13] = molecular target: T9, Replicative DNA helicase DnaB (Mycobacterium tuberculosis, UniProt P9WMR3); assay: DnaB intein splicing inhibitors, dose response, biochemical, cell-free fluorescence (AID 449749); type: functional
T9 sequence (P9WMR3 whole entry): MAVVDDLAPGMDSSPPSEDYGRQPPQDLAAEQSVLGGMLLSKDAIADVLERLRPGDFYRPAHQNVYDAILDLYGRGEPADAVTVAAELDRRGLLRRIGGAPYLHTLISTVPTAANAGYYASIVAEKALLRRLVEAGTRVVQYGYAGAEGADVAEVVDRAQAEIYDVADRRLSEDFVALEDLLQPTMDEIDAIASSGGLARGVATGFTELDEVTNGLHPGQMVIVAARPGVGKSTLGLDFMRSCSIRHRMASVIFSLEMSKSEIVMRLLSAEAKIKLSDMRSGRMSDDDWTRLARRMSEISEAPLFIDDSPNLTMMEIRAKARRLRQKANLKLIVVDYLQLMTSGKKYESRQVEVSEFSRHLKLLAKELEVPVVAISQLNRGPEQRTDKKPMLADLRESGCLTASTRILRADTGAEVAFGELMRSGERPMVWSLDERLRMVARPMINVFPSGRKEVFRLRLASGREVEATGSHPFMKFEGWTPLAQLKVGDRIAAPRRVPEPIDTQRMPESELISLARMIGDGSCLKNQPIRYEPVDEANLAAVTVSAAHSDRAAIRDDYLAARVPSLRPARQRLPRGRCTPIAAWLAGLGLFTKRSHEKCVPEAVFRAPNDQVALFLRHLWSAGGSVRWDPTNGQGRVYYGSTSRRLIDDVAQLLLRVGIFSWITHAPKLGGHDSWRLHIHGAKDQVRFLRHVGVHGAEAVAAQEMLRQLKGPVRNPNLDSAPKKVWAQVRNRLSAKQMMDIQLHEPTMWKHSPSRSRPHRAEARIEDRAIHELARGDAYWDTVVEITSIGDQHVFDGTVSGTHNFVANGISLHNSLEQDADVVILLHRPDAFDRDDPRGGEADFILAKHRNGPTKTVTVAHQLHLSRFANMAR

Genome polyprotein = Genome polyprotein (dengue virus type 2, UniProt P29990); assay: Dengue-2 NS5 methyltransferase inhibitors, primary screen, biochemical, confirmation dose response (AID 588689); type: functional

T4 sequence (Q92731 whole entry): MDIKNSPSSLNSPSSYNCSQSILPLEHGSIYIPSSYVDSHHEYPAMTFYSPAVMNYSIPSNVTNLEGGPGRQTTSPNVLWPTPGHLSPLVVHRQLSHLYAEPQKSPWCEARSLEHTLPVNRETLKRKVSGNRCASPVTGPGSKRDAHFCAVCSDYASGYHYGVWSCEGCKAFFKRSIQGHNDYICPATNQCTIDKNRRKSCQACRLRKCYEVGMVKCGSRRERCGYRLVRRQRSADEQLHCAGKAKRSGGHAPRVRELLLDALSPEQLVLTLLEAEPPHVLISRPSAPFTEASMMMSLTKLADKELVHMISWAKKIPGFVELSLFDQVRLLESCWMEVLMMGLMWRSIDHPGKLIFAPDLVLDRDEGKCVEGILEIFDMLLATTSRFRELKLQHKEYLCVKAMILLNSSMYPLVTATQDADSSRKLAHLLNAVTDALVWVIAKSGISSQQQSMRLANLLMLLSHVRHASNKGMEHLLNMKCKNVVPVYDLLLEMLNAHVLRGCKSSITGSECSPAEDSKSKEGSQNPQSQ
Chain of Peroxisome proliferator-activated receptor gamma/Nuclear receptor coactivator 1 (P37231 whole entry): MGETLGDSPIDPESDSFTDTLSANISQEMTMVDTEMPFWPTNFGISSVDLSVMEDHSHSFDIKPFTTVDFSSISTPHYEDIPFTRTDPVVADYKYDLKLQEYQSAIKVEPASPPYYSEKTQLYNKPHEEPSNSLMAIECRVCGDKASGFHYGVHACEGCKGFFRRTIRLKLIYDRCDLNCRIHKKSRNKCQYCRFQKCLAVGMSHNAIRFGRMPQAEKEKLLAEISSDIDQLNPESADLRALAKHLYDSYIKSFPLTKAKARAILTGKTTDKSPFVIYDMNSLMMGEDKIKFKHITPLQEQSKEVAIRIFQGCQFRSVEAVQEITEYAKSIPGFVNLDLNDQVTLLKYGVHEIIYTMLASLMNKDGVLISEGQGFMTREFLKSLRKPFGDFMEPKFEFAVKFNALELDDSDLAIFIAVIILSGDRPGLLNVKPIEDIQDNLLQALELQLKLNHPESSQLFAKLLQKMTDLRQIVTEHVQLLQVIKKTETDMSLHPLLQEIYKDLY
Chain of Peroxisome proliferator-activated receptor gamma/Nuclear receptor coactivator 1 (Q15788 whole entry, further chain): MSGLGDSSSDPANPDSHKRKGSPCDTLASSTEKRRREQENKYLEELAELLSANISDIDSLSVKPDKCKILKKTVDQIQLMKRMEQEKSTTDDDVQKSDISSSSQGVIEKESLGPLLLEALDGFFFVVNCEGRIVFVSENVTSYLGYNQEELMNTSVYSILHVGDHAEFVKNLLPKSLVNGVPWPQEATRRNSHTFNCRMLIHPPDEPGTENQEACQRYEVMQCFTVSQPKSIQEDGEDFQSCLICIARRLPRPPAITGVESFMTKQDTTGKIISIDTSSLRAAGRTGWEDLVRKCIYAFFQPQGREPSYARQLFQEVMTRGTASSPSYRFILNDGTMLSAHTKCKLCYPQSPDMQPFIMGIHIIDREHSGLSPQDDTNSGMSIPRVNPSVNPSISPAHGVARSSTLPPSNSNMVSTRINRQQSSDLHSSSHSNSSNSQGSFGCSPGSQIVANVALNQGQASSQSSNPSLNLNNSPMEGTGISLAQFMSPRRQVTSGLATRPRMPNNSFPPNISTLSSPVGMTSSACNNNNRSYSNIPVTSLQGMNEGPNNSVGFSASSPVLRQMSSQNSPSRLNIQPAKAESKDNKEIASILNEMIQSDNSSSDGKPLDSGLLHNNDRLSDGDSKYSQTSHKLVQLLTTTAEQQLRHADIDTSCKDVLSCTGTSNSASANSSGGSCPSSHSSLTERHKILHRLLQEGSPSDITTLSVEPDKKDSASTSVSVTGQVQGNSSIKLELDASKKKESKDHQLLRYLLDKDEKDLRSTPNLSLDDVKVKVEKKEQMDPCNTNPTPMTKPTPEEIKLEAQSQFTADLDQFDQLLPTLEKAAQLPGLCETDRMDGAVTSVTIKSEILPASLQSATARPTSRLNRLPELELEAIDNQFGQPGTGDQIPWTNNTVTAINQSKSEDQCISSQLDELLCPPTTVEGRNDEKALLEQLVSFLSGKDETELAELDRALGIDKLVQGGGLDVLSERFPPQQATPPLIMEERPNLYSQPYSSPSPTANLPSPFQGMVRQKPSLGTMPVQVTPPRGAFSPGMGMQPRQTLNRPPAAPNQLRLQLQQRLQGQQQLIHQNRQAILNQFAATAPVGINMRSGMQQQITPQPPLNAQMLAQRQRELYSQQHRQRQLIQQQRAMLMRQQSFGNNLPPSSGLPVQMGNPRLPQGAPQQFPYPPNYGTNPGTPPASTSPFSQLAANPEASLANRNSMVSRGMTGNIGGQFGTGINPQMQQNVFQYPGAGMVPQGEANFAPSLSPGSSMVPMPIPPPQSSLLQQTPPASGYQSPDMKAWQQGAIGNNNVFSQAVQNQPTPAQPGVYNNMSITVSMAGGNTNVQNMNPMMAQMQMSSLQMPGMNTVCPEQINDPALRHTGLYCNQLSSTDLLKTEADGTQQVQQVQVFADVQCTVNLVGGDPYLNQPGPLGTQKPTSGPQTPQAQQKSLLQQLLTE
Chain of Peroxisome proliferator-activated receptor gamma/Nuclear receptor coactivator 2 (P37231 whole entry): as the sequence (P37231 whole entry) above
Chain of Peroxisome proliferator-activated receptor gamma/Nuclear receptor coactivator 2 (Q15596 whole entry, further chain): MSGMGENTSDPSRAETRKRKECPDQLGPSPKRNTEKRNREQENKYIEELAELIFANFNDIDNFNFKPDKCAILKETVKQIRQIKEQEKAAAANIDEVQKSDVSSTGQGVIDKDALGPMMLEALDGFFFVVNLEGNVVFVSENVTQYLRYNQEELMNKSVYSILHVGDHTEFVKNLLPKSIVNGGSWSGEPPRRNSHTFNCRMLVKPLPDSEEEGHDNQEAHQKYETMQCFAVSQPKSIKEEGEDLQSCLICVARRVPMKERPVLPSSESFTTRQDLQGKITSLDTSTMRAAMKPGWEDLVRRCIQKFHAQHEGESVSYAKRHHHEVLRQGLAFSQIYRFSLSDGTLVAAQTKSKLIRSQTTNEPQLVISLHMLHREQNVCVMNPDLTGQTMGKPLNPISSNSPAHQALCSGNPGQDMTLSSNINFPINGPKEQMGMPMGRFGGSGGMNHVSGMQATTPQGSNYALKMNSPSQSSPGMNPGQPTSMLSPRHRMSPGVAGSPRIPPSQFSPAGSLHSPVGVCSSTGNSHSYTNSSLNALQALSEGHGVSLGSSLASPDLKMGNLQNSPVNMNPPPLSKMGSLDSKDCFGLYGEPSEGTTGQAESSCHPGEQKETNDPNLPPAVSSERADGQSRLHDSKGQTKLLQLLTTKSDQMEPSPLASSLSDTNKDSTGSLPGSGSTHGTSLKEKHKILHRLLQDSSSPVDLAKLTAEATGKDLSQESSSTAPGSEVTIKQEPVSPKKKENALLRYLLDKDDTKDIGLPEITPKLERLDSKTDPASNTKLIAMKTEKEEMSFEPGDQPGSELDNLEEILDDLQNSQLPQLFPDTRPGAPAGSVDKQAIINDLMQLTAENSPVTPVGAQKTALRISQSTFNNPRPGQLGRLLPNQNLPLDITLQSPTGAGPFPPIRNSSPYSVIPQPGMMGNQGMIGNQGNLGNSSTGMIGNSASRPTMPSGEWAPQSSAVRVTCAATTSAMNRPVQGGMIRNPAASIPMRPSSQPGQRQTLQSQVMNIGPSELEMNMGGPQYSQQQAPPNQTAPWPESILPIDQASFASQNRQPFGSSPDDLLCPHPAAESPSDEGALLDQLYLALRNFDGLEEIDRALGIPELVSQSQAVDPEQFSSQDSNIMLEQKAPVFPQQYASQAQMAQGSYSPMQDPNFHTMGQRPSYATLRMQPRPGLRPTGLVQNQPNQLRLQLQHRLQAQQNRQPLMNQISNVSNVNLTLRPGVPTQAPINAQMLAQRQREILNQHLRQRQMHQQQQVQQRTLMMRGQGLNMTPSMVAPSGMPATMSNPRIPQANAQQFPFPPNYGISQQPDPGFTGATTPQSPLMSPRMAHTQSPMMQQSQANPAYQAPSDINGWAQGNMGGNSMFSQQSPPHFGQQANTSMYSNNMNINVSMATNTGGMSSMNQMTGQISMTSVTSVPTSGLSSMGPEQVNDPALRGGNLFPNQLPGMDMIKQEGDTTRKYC
T6 sequence (P11940 whole entry): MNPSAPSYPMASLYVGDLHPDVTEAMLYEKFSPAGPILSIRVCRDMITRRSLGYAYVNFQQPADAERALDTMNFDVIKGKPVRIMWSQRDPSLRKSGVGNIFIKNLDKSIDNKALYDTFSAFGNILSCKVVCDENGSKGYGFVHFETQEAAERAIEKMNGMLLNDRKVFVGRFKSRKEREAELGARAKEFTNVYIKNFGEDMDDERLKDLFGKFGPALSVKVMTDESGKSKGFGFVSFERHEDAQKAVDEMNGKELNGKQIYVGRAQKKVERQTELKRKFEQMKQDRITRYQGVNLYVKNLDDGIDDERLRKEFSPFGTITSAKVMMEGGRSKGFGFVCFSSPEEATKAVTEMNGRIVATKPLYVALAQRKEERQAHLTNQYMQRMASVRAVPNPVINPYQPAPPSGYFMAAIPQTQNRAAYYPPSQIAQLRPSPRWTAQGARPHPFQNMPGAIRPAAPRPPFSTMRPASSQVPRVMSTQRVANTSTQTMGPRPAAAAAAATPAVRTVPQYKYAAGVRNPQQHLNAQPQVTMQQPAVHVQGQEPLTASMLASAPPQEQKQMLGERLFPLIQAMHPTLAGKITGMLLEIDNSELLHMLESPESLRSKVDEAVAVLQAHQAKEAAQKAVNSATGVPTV

COc1cc2c(cc1OC)C(Nc1ccc(S(N)(=O)=O)cc1)=NC(C)(C)C2
EC50 [1]: > 79.4 µM (not active)
EC50 [2]: > 79.4 µM (not active)
EC50 [3]: > 79.4 µM (not active)

O=S(=O)(Nc1cccc(C(F)(F)F)c1)c1cnc[nH]1
EC50 [1]: > 79.4 µM (not active)
EC50 [2]: > 79.4 µM (not active)
EC50 [3]: > 79.4 µM (not active)

Cc1cc(C(=O)Nc2sc3c(c2C#N)CCC3)no1
IC50 [4]: 52.7 µM (active)
IC50 (Caspase-3): 30.4 µM (active)
IC50 [5]: > 99 µM (inactive)
IC50 (Estrogen receptor beta [6]): < 0.023 µM (not active)
IC50 (Estrogen receptor beta [7]): 11.5 µM (active)
IC50 [8]: > 99 µM (inactive)

COc1cc(-c2nc(S(=O)(=O)c3ccc(C)cc3)c(N3CCOCC3)o2)cc(OC)c1OC
IC50 [9]: > 66 µM (inactive)
IC50 [10]: > 66 µM (inactive)
CC50 [11]: > 40 µM (active)

CC1CC1C(=O)Nc1nc(-c2cccs2)c(-c2cccs2)s1 (stereo unspecified)
CC50 [11]: > 40 µM (active)

Cc1ccc(-n2nnnc2Sc2nc([N+](=O)[O-])nn2C)cc1
CC50 [11]: 16.5 µM (active)

O=C(O)CC1SC(N/N=C/c2ccc(-c3ccc(Cl)cc3[N+](=O)[O-])o2)=NC1=O (stereo unspecified)
EC50 (Protein RecA): 4.61 µM (active)
IC50 [12]: > 50 µM (not active)
AC50 [13]: > 380 µM (inactive)
IC50 (Genome polyprotein): 34.8 µM (active)
